This note sets out measurements from patent EP0000322A1, “Compounds having an anti-depressive or tranquilizing activity, pharmaceutical compositions containing them, and processes and intermediates for their preparation” (priority 1977, dated 1979).

Where a name gives a salt, the structure may show the parent alone. Read-outs that look alike come from different tables or passages of the source. Where only a bound is given, the exact number is not on record here.

For test [1], the system named is neuronal uptake of 5-hydroxytryptamine. The test can be described thus: Inhibition of the uptake of 14C-5-HT in brain slices after in vivo (i.p.) administration. Details: species or system mice. As to conditions: for Inhibition of the uptake in vivo i.p. ED50 5-HT: 30 min; for ED50: Mus musculus, ip, 0.5 h. The method, then:
(§1) The test method described in Europ. J. Pharmacol. 17, 107, 1972. This method involves the measurement of the decrease in the uptake of ^14C-5-hydroxytryptamine (^14C-5-HT) and ^3H- -noradrenaline (^3H-NA) in brain slices from mice after in vivo and in vitro administration of the test substance.
(§2) The test substances were administered intraperitoneally half an hour before the animals were killed. The midbrain was taken out, sliced and incubated in a mixture consisting of 0.2 nmole of ^14C-5-HT, 0.2 nmole of ^3H-NA and 11 µmole of glucose in 2 ml of Krebs Henseleit-buffer, pH 7.4 per 100 mg of brain slices. The incubation time was 5 minutes with 5 minutes of preincubation before the labelled amines were added. The slices were dissolved in Soluene and the amounts of radioactive amines taken u^p were determined by liquid scintillation. The doses producing 50 per cent decrease of the active uptake (ED50) of ^14C-5-HT and ^3H-NA were determined graphically from dose response curves. Active uptake is defined as that part of the radioactive uptake which is inhibited by a high concentration of cocaine.

Test [2] relates to neuronal uptake of noradrenaline. The test can be described thus: Inhibition of the uptake of 3H-NA in brain slices after in vivo (i.p.) administration. The note with it: for Inhibition of the uptake in vivo i.p. ED50 NA: 30 min; for ED50: Mus musculus, ip, 0.5 h. On the set-up: species or system mice. The method, then:
as §1, §2

Test [3] relates to neuronal uptake of 5-hydroxytryptamine and noradrenaline. The test can be described thus: Overall assessment of the uptake tests (selectivity NA versus 5-HT). On the set-up: species or system mouse. As to conditions: summary of the results of Table I.
Test [4] concerns the target neuronal uptake of 5-hydroxytryptamine (Mus musculus, UniProt Q60857). Briefly: Inhibition of the uptake of 14C-5-HT in mouse midbrain slices, in vitro administration. Format: cell-based. As to conditions: slices from mouse brain (midbrain), 5 min preincubation with compound. How it is done:
as §1
as §2, with “Active uptake is defined as that part of the radioactive uptake which is inhibited by a high concentration of cocaine.” left out
(§3) In the vitro administration method slices of mouse midbrain were preincubated for 5 minutes with solution of the compound to be tested and then incubated as described above. The concentration producing 50 per cent inhibition of the active uptake IC50 of ^14C-5-HT and 3-H-NA was determined graphically from dose response curves.

Test [5] has as its target neuronal uptake of noradrenaline (Mus musculus, UniProt O55192). Briefly: Inhibition of the uptake of 3H-NA in mouse midbrain slices, in vitro administration. It is filed as cell-based. The note with it: slices from mouse brain (midbrain), 5 min preincubation with compound. How it is done:
as §1
as §2, with “Active uptake is defined as that part of the radioactive uptake which is inhibited by a high concentration of cocaine.” left out
as §3

The mark [6] stands for this setting: i.p. half an hour before the animals were killed, midbrain slices.
The mark [7] stands for this setting: i.p. half an hour before the animals were killed, midbrain slices, read-out: Inhibition of the uptake in vivo i.p. ED50 5-HT.
Where [8] appears, read: i.p. half an hour before the animals were killed, midbrain slices, read-out: Inhibition of the uptake in vivo i.p. ED50 NA.
[9] abbreviates: i.p. half an hour before the animals were killed, midbrain slices, hydrochloride.
Setting [10] is: read-out: Inhibition of the uptake in vivo i.p. ED50 5-HT, i.p. half an hour before the animals were killed, midbrain slices.
Setting [11] is: read-out: Inhibition of the uptake in vivo i.p. ED50 NA, i.p. half an hour before the animals were killed, midbrain slices.

Sequence of neuronal uptake of noradrenaline (Mus musculus, UniProt O55192) (O55192 whole entry): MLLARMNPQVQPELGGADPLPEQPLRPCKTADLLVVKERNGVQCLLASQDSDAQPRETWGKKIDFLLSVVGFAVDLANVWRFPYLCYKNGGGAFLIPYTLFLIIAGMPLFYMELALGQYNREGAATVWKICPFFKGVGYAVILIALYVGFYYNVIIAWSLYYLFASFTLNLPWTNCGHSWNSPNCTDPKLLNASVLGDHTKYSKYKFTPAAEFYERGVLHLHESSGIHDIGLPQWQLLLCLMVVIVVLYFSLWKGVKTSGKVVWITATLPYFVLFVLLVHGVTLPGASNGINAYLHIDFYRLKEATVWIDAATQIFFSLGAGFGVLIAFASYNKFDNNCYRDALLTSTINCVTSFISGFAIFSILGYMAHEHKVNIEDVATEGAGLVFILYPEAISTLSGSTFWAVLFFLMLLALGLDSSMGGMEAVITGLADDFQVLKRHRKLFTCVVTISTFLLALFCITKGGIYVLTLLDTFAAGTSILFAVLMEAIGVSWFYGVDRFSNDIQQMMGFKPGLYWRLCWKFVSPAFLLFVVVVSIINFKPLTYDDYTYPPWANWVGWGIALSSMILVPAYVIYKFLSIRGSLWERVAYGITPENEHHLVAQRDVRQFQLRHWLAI
Sequence of neuronal uptake of 5-hydroxytryptamine (Mus musculus, UniProt Q60857) (Q60857 whole entry): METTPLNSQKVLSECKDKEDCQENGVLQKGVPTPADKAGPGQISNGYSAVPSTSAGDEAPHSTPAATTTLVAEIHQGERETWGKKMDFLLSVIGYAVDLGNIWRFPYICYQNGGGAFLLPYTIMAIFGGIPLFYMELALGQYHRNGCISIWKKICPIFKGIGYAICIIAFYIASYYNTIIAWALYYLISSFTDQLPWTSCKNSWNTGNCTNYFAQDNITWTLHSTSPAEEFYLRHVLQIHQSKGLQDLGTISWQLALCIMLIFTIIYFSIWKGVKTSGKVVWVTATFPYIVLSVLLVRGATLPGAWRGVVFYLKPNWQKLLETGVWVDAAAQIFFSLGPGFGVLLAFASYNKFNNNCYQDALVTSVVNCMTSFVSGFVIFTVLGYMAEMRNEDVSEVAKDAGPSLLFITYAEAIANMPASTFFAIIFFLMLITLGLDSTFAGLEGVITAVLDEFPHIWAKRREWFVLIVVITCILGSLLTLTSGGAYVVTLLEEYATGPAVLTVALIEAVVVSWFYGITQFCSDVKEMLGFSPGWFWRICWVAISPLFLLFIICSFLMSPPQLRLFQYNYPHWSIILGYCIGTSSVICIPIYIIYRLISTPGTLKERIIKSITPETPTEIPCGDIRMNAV

As for `CC(N)CC(c1ccccc1)c1ccc(Br)cc1` (single isomer, unassigned) [CPK 165, (α)-3-(4-bromophenyl)-1-methyl-3-phenylaropylamine maleate], the “Inhibition of the uptake in vivo i.p. ED50 5-HT” value in test [1] (setting [6]) worked out at 61 µmol/kg. The “Inhibition of the uptake in vivo i.p. ED50 NA” value in test [2] (setting [6]) was 62 µmol/kg.

On to `CC(N)/C=C(\c1ccccc1)c1ccc(Br)cc1` (stereo not shown) [CPK 204, (E)-3-amino-1-(4-bromophenyl)-1-phenylbutene oxalate], for which the ED50 in test [1] (setting [7]) was found to be 40 µmol/kg; in test [2] (setting [8]), 48 µmol/kg.

Consider `CC(N)CC(c1ccccc1)c1ccc(F)cc1` (single isomer, unassigned) [CPK 170, (β)-3-(4-fluorophenyl)-1--methyl-3-phenylpropylamine hydrochloride], for which the “Inhibition of the uptake in vivo i.p. ED50 5-HT” value in test [1] (setting [9]) was found to be 37 µmol/kg. Further, in test [3], the “activity on uptake of noradrenaline and 5-hydroxytryptamine (assessment in words)” value (shortened to “activity on uptake”) is listed as “pronounced non-selective activity”. Further, the “Inhibition of the uptake in vivo i.p. ED50 NA” value in test [2] (setting [9]) is 34 µmol/kg.

For `CNCC=C(c1ccc(Br)cc1)c1cccnc1` [N-methyl-3-(4-bromophenyl)-3-(3-pyridyl)-allylamine E-isomer, N-methyl-3-(4-bromophenyl)-3-(3-pyridyl)-allylamine, reference compound], the “Inhibition of the uptake in vivo i.p. ED50 NA” value in test [2] (setting [6]) stood at 25 µmol/kg.

Take `CC(N)/C=C(/c1ccc(Br)cc1)c1cccnc1` (stereo not shown) [CPP 179]: the ED50 is 89 µmol/kg in test [1] (setting [7]) and over 89 µmol/kg in test [2] (setting [8]).

Turning to `CC(N)/C=C(\c1ccccc1)c1cccc(Br)c1` (stereo not shown) [CPK 215, (E)-3-amino-1-(3-bromophenyl)-1-phenylbutene], the ED50 was found to be 96 µmol/kg in test [1] (setting [7]) and 24 µmol/kg in test [2] (setting [8]).

Regarding `CC(N)CC(c1ccccc1)c1ccccc1Br` (single isomer, unassigned) [CPK 197, (β)-3-(2-bromophenyl)-1-methyl-3--phenyl-propylamine maleate], the “Inhibition of the uptake in vivo i.p. ED50 5-HT” value in test [1] (setting [6]) is over 95 µmol/kg. Also, the “Inhibition of the uptake in vivo i.p. ED50 NA” value in test [2] (setting [6]) turned out to be 28 µmol/kg.

On to `CC(N)C=C(c1ccc(Br)cc1)c1ccc(Br)cc1` (stereo not shown) [FLA 608, 3-amino-1,1-di(4-bromophenyl)-1--butene hydrochloride], for which the ED50 in test [1] (setting [7]) turned out to be 62 µmol/kg; in test [2] (setting [8]), 57 µmol/kg.

For “(Z)-3-amino-1-(4-bromophenyl)-1--phenylbutene maleate [CPK 150]”, the IC50 in test [4] amounted to 3000 nM; in test [5], 2000 nM. In addition, the “Inhibition of the uptake in vivo i.p. ED50 5-HT” value in test [1] (setting [6]) is over 96 µmol/kg. Also, in test [2] (setting [6]), the “Inhibition of the uptake in vivo i.p. ED50 NA” value was determined as 96 µmol/kg.

In the case of `CNC(C)CC(c1ccccc1)c1ccc(Br)cc1` (stereo not shown) [CPK 187, N, 1-dimethyl-3(4-bromophenyl)--3-phenylpropylamine], the ED50 in test [1] (setting [7]) is 98 µmol/kg; in test [2] (setting [8]) it was over 98 µmol/kg.

In the case of `COc1ccc(C(CC(C)N)c2ccc(OC)cc2)cc1` (stereo not shown) [FLA 614, 3,3-di-(4-methoxyphenyl)-1-methyl--propylamine fumarate], the values for the ED50 in test [1] (setting [7]) and in test [2] (setting [8]) were 25 µmol/kg and 100 µmol/kg, respectively.

Take `Cc1cccc(C(CC(C)N)c2cccc(C)c2)c1` (stereo not shown) [FLA 619, 1,3', 3"-trimethyl-3,3-diphenyl-propylamine oxalate]: the ED50 in test [1] (setting [7]) came to 116 µmol/kg; in test [2] (setting [8]), 48 µmol/kg.

In the case of `CC(N)CC(c1ccccc1)c1cccc(Br)c1` (single isomer, unassigned) [CPK 184, (β)-3-(3-bromophenyl)-1-methyl-3-phenylpropylamine], the ED50 in test [1] (setting [7]) amounted to 9.9 µmol/kg; in test [2] (setting [8]), 7.7 µmol/kg. For the same compound, the “activity on uptake” value in test [3] is given as “pronounced non-selective activity”.

As to `CC(N)CC(c1ccccc1)c1ccccc1` (stereo not shown) [3,3-diphenyl-1-methylpropylamine fumarate, reference compound], the ED50 in test [1] (setting [7]) is 75 µmol/kg; in test [2] (setting [8]) it was 50 µmol/kg.

Turning to `CNCC=C(c1ccc(Br)cc1)c1cccnc1` [N-methyl-3-(4-bromophenyl)-3-(3-pyridyl)-allylamine Z-isomer, N-methyl-3-(4-bromophenyl)-3-(3-pyridyl)-allylamine, reference compound], the “Inhibition of the uptake in vivo i.p. ED50 5-HT” value in test [1] (setting [6]) turned out to be 19 µmol/kg. In addition, the “Inhibition of the uptake in vivo i.p. ED50 NA” value in test [2] (setting [6]) was over 102 µmol/kg.

With `CC(N)CC(c1ccc(F)cc1)c1ccc(F)cc1.Cl` (stereo not shown) [FLA 615, 3,3-di-(4-fluorophenyl)-1-methylpropylamine hydrochloride], the ED50 in test [1] (setting [7]) was 29 µmol/kg; in test [2] (setting [8]), 57 µmol/kg. The “activity on uptake” value in test [3] is reported as “pronounced selective activity on uptake of 5-hydroxytryptamine”.

On to `CC(N)CC(c1ccccc1)c1ccc(F)cc1` (single isomer, unassigned) [CPK 163, (α)-3-(4-fluorophenyl)-1-methyl-3-phenylpropylamine oxalate], for which the ED50 in test [1] (setting [7]) and in test [2] (setting [8]) was 32 µmol/kg throughout.

As to `COc1ccc(C(=CC(C)N)c2ccc(OC)cc2)cc1.O=C(O)/C=C/C(=O)O` (stereo not shown) [FLA 611, 3-amino-1,1-di(4-methoxyphenyl)--1-butene fumarate], the figures for the 50% effective dose (ED50) in test [1] (setting [7]) and in test [2] (setting [8]) were 63 µmol/kg and 108 µmol/kg, respectively. Moreover, the “activity on uptake” value in test [3] is on record as “pronounced selective activity on uptake of 5-hydroxytryptamine”.

For the compound `CC(N)/C=C(/c1ccccc1)c1cccc(Br)c1` (stereo not shown) [CPK 217, (Z)-3-amino-1-(3-bromophenyl)-1-phenylbutene], the ED50 in test [1] (setting [7]) was 118 µmol/kg; in test [2] (setting [8]) it was 35 µmol/kg.

Consider `CC(N)CC(c1ccccc1)c1ccc(C(F)(F)F)cc1` (single isomer, unassigned) [CPK 195, (α)-1-methyl-3-(4-trifluoromethylphenyl)-3-phenylpropylamine maleate], for which the values for the median effective dose (ED50) in test [1] (setting [10]) and in test [2] (setting [11]) were 98 µmol/kg and over 98 µmol/kg, respectively.

As for `CC(N)CC(c1ccccc1)c1ccc(Br)cc1` (single isomer, unassigned) [CPK 171, (β)-3-(4-bromophenyl)-1-methyl-3-phenylpropylamine], the “Inhibition of the uptake in vivo i.p. ED50 5-HT” value in test [1] (setting [6]) was 29 µmol/kg. Besides, in test [3], the “activity on uptake” value is listed as “pronounced non-selective activity”. The “Inhibition of the uptake in vivo i.p. ED50 NA” value in test [2] (setting [6]) stood at 29 µmol/kg.

With `Cc1cccc(C(=CC(C)N)c2cccc(C)c2)c1` (stereo not shown) [FLA 618, 3-amino-1,1-di-(3-methylphenyl)-1-butene hydrochloride], the ED50 in test [1] (setting [7]) is 93 µmol/kg; in test [2] (setting [8]) it was 56 µmol/kg.

For `CC(N)CC(c1ccccc1)c1cccc(Br)c1` (stereo not shown) [CPK 155, 3-(3-bromophenyl)-1-methyl-3-phenylpropylamine], the ED50 in test [1] (setting [7]) was over 95 µmol/kg; in test [2] (setting [8]), 49 µmol/kg.

As for `CN(C)CCCN1c2ccccc2CCc2ccc(Cl)cc21` [Chloroimipramine, reference compound], the IC50 in test [5] turned out to be 900 nM. Further, the ED50 in test [2] (setting [11]) was 150 µmol/kg.

As for `COc1ccc(C(CC(C)N)c2ccccc2)cc1` (single isomer, unassigned) [CPK 180, (α)-3-(4-methoxyphenyl)-1-methyl-3-phenylpropylamine], the figures for the ED50 in test [1] (setting [10]) and in test [2] (setting [11]) were 54 µmol/kg and 78 µmol/kg, respectively.

With `CC(N)C=C(c1ccc(F)cc1)c1ccc(F)cc1` (stereo not shown) [FLA 613, 3-amino-1,1-di-(4-fluorphenyl)-1-butene fumarate], the ED50 in test [1] (setting [7]) came to 38 µmol/kg; in test [2] (setting [8]), 106 µmol/kg.

Turning to `COc1ccc(C(CC(C)N)c2ccccc2)cc1` (single isomer, unassigned) [CPK 160], in test [3], the “activity on uptake” value was “pronounced non-selective activity”.

Regarding `CC(N)CC(c1ccccc1)c1ccc(C(F)(F)F)cc1` (single isomer, unassigned) [CPK 199, (β)-1-methyl-3-(4-trifluoromethylphenyl)-3-phenylpropylamine maleate], the “Inhibition of the uptake in vivo i.p. ED50 5-HT” value in test [1] (setting [6]) is over 98 µmol/kg. Moreover, in test [2] (setting [6]), the “Inhibition of the uptake in vivo i.p. ED50 NA” value was over 98 µmol/kg.

For the compound `CC(N)CC(c1ccccc1)c1ccccc1Br` (single isomer, unassigned) [CPK 185, (α)-3-(2-bromophenyl)-1-methyl-3-phenylpropylamine maleate], in test [1] (setting [6]), the “Inhibition of the uptake in vivo i.p. ED50 5-HT” value was 5.7 µmol/kg. Besides, in test [3], the “activity on uptake” value is “pronounced selective activity on uptake of noradrenaline”. Also, the “Inhibition of the uptake in vivo i.p. ED50 NA” value in test [2] (setting [6]) came to 4.1 µmol/kg.

On to `COc1ccc(C(CC(C)N)c2ccccc2)cc1` (single isomer, unassigned) [CPK 198, (β)-3-(4-methoxyphenyl)-1-methyl-3-phenylpropylamine], for which the “Inhibition of the uptake in vivo i.p. ED50 5-HT” value in test [1] (setting [6]) came to 33 µmol/kg. Also, the “activity on uptake” value in test [3] was “pronounced selective activity on uptake of 5-hydroxytryptamine”. For the same compound, the “Inhibition of the uptake in vivo i.p. ED50 NA” value in test [2] (setting [6]) was 52 µmol/kg.

By ED50 is commonly meant the dose at which the effect has come halfway, by size or by number of responders. By IC50 is commonly meant the concentration that inhibits the measured activity by half.
